Measured values from ChEMBL document CHEMBL4507274 (2021).

Tests used:
[1] = target: Activated CDC42 kinase 1 (Homo sapiens) (UniProt Q07912); conditions: Compound concentration 100.0 nM
[2] = target: Casein kinase I isoform alpha (Homo sapiens) (UniProt P48729); conditions: Compound concentration 100.0 nM
[3] = target: Serine/threonine-protein kinase 10 (Homo sapiens) (UniProt O94804); conditions: Compound concentration 100.0 nM
[4] = target: Serine/threonine-protein kinase TAO3 (Homo sapiens) (UniProt Q9H2K8); conditions: Compound concentration 100.0 nM
[5] = target: D(1B) dopamine receptor (Homo sapiens) (UniProt P21918); conditions: Compound concentration 10.0 uM
[6] = target: Cyclin-dependent kinase 3 (Homo sapiens) (UniProt Q00526); conditions: Compound concentration 100.0 nM
[7] = target: Activin receptor type-1 (Homo sapiens) (UniProt Q04771); conditions: Compound concentration 100.0 nM
[8] = system: Receptor-type tyrosine-protein kinase FLT3 (Homo sapiens), P36888 [UNDEFINED MUTATION]; conditions: Compound concentration 100.0 nM
[9] = target: Mitogen-activated protein kinase kinase kinase 15 (Homo sapiens) (UniProt Q6ZN16); conditions: Compound concentration 100.0 nM
[10] = target: RAF proto-oncogene serine/threonine-protein kinase (Homo sapiens) (UniProt P04049); conditions: Compound concentration 100.0 nM
[11] = system: Serine/threonine-protein kinase B-raf (Homo sapiens), P15056 [V600E]; conditions: Compound concentration 100.0 nM
[12] = target: T1, Serine/threonine-protein kinase D1 (Homo sapiens) (UniProt Q15139); conditions: Compound concentration 100.0 nM
T1 sequence (whole entry): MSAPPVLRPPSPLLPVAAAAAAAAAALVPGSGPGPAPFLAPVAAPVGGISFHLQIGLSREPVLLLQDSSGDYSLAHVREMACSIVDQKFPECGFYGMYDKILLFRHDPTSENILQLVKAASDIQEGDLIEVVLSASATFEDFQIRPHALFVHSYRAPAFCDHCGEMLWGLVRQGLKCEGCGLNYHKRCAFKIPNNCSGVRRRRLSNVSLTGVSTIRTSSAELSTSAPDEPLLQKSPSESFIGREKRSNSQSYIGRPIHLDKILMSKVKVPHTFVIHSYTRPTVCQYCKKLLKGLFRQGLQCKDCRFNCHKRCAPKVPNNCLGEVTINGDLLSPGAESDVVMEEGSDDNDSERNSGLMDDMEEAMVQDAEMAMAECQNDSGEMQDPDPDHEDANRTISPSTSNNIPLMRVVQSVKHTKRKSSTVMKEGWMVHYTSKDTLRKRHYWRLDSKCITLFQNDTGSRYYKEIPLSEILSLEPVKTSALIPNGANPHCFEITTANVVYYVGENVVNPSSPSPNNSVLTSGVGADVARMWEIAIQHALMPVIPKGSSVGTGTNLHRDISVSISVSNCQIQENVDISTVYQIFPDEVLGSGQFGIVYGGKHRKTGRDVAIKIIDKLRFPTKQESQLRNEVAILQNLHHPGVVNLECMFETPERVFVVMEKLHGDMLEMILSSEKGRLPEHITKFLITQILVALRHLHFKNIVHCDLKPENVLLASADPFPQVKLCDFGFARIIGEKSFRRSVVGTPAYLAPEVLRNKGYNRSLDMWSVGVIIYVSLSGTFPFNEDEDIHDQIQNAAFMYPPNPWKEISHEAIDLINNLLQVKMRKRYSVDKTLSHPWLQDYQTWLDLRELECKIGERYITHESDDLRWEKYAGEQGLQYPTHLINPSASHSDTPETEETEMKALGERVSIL

[13] = target: Serine/threonine-protein kinase 26 (Homo sapiens) (UniProt Q9P289); conditions: Compound concentration 100.0 nM
[14] = target: Receptor tyrosine-protein kinase erbB-4 (Homo sapiens) (UniProt Q15303); conditions: Compound concentration 100.0 nM
[15] = target: Serine/threonine-protein kinase LATS1 (Homo sapiens) (UniProt O95835); conditions: Compound concentration 100.0 nM
[16] = target: Calcium/calmodulin-dependent protein kinase kinase 1 (Homo sapiens) (UniProt Q8N5S9); conditions: Compound concentration 100.0 nM
[17] = target: MAP kinase-interacting serine/threonine-protein kinase 1 (Homo sapiens) (UniProt Q9BUB5); conditions: Compound concentration 100.0 nM
[18] = target: Tyrosine-protein kinase JAK1 (Homo sapiens) (UniProt P23458); conditions: Compound concentration 100.0 nM
[19] = target: BMP-2-inducible protein kinase (Homo sapiens) (UniProt Q9NSY1); conditions: Compound concentration 100.0 nM
[20] = system: Tyrosine-protein kinase ABL1 (Homo sapiens), P00519 [Q252H]; conditions: Compound concentration 100.0 nM
[21] = target: Protein kinase C eta type (Homo sapiens) (UniProt P24723); conditions: Compound concentration 100.0 nM
[22] = system: Hepatocyte growth factor receptor (Homo sapiens), P08581 [M1250T]; conditions: Compound concentration 100.0 nM
[23] = system: Tyrosine-protein kinase ABL1 (Homo sapiens), P00519 [T315I]; conditions: Compound concentration 100.0 nM
[24] = target: Dual specificity protein kinase TTK (Homo sapiens) (UniProt P33981); conditions: Compound concentration 100.0 nM
[25] = system: Receptor-type tyrosine-protein kinase FLT3 (Homo sapiens), P36888 [D835H]; conditions: Compound concentration 100.0 nM
[26] = system: Tyrosine-protein kinase ABL1 (Homo sapiens), P00519 [E255K]; conditions: Compound concentration 100.0 nM
[27] = target: Mitogen-activated protein kinase kinase kinase kinase 2 (Homo sapiens) (UniProt Q12851); conditions: Compound concentration 100.0 nM
[28] = target: 5-hydroxytryptamine receptor 2C (Homo sapiens) (UniProt P28335); conditions: Compound concentration 10.0 uM
[29] = target: Wee1-like protein kinase 2 (Homo sapiens) (UniProt P0C1S8); conditions: Compound concentration 100.0 nM
[30] = target: Homeodomain-interacting protein kinase 3 (Homo sapiens) (UniProt Q9H422); conditions: Compound concentration 100.0 nM
[31] = target: cAMP-dependent protein kinase catalytic subunit PRKX (Homo sapiens) (UniProt P51817); conditions: Compound concentration 100.0 nM
[32] = target: Mast/stem cell growth factor receptor Kit (Homo sapiens) (UniProt P10721); conditions: Compound concentration 100.0 nM
[33] = target: Serine/threonine-protein kinase SIK1 (Homo sapiens) (UniProt P57059); conditions: Compound concentration 100.0 nM
Chain of Serine/threonine-protein kinase SIK1 (Homo sapiens) (P57059 whole entry): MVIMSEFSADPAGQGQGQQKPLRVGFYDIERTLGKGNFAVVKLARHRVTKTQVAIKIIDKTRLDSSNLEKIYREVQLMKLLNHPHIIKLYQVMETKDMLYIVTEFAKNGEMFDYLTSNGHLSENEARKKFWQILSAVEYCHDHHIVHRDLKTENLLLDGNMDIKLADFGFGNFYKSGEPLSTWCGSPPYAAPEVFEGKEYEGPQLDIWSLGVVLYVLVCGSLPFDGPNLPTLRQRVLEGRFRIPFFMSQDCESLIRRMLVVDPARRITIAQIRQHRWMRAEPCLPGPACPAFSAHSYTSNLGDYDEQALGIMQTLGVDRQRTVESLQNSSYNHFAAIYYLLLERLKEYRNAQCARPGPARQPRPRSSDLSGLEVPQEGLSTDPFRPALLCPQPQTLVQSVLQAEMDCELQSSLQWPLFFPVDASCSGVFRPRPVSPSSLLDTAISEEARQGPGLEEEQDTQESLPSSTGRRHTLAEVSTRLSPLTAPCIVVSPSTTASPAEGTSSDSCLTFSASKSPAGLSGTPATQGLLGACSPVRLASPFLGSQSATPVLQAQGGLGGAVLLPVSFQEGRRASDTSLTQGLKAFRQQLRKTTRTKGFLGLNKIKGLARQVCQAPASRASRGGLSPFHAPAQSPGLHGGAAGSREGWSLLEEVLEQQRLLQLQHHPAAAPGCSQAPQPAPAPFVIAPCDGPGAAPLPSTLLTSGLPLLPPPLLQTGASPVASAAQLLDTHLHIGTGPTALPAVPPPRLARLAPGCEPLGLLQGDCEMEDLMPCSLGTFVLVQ

Chain of D(1B) dopamine receptor (Homo sapiens) (P21918 whole entry): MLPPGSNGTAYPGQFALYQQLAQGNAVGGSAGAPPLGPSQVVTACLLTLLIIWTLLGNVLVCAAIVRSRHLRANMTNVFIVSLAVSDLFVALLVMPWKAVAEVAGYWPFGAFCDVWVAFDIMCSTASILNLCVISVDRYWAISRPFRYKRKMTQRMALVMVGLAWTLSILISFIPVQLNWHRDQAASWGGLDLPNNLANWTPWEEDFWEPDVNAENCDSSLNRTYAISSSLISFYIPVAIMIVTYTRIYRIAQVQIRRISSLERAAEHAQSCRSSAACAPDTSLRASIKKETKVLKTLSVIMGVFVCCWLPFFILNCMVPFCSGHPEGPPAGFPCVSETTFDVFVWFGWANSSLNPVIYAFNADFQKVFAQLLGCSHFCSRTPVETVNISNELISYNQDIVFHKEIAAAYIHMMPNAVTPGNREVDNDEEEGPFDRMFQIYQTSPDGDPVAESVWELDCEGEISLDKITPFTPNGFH
Chain of Serine/threonine-protein kinase 10 (Homo sapiens) (O94804 whole entry, looked up): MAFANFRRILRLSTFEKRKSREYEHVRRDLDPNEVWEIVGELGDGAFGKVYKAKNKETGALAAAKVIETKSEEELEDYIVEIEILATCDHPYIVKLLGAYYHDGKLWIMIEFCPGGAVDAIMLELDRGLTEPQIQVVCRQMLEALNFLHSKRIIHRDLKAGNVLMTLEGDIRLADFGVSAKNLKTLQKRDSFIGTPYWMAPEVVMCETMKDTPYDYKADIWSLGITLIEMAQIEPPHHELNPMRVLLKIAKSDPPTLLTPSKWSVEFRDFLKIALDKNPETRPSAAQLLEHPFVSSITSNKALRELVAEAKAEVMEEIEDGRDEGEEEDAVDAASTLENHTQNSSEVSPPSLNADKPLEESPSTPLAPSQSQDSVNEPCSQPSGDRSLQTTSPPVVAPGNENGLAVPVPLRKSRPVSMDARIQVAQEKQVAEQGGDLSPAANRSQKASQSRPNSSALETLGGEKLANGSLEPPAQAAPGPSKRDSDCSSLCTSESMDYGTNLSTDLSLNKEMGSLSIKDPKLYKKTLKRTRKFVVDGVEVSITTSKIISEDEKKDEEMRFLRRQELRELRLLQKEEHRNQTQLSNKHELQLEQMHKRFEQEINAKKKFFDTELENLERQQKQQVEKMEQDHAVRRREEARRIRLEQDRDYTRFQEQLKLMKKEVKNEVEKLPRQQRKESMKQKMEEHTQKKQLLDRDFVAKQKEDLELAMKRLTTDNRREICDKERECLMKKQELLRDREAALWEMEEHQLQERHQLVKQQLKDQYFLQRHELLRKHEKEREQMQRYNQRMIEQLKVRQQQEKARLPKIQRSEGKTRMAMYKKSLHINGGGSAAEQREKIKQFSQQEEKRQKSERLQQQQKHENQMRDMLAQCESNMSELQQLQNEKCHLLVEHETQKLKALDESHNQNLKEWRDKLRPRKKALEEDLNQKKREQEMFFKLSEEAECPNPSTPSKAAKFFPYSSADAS
Chain of Casein kinase I isoform alpha (Homo sapiens) (P48729 2-337 limits assumed): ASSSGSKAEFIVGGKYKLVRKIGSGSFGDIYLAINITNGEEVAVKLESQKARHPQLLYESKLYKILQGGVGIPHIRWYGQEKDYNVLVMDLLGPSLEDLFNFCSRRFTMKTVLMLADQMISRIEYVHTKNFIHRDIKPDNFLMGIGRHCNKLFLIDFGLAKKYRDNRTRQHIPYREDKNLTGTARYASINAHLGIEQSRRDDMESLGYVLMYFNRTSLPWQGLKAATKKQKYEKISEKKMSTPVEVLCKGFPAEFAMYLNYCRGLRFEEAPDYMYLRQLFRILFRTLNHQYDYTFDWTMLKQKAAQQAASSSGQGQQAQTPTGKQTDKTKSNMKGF
Chain of Calcium/calmodulin-dependent protein kinase kinase 1 (Homo sapiens) (Q8N5S9 whole entry, looked up): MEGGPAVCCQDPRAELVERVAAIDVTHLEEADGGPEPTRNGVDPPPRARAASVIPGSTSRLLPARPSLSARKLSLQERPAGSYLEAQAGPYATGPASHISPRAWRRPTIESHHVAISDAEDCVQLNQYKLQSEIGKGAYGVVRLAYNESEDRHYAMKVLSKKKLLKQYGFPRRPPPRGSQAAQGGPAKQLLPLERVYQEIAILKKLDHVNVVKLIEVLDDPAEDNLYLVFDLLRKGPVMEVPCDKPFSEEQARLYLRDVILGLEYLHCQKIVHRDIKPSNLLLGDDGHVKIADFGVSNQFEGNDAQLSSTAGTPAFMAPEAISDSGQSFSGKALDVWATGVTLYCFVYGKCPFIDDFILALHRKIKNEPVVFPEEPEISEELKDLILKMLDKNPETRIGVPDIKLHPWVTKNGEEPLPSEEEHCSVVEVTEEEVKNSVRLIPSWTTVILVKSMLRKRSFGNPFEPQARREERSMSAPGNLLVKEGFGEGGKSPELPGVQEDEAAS
Chain of MAP kinase-interacting serine/threonine-protein kinase 1 (Homo sapiens) (Q9BUB5 whole entry, looked up): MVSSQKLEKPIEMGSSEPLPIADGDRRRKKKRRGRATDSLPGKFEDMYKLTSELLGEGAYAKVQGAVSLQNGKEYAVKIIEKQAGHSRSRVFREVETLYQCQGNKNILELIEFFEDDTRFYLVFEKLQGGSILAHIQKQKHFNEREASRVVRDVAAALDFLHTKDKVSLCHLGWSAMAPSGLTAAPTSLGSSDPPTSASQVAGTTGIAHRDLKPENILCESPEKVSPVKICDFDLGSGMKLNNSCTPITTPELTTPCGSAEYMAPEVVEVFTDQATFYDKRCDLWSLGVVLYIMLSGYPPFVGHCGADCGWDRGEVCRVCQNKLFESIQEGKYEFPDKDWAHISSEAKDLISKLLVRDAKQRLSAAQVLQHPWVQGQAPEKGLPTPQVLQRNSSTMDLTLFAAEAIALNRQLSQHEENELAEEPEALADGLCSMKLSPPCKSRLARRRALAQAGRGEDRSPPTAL
Chain of Cyclin-dependent kinase 3 (Homo sapiens) (Q00526 whole entry, looked up): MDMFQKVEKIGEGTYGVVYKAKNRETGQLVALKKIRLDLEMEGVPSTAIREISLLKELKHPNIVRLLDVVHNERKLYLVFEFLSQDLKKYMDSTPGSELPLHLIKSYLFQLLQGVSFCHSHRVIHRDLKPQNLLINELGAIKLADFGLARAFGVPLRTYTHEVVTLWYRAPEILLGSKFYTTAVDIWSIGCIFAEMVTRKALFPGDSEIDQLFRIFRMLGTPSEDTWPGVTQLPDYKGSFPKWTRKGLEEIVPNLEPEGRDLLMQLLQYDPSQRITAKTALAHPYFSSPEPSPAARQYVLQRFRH
Chain of BMP-2-inducible protein kinase (Homo sapiens) (Q9NSY1 whole entry, looked up): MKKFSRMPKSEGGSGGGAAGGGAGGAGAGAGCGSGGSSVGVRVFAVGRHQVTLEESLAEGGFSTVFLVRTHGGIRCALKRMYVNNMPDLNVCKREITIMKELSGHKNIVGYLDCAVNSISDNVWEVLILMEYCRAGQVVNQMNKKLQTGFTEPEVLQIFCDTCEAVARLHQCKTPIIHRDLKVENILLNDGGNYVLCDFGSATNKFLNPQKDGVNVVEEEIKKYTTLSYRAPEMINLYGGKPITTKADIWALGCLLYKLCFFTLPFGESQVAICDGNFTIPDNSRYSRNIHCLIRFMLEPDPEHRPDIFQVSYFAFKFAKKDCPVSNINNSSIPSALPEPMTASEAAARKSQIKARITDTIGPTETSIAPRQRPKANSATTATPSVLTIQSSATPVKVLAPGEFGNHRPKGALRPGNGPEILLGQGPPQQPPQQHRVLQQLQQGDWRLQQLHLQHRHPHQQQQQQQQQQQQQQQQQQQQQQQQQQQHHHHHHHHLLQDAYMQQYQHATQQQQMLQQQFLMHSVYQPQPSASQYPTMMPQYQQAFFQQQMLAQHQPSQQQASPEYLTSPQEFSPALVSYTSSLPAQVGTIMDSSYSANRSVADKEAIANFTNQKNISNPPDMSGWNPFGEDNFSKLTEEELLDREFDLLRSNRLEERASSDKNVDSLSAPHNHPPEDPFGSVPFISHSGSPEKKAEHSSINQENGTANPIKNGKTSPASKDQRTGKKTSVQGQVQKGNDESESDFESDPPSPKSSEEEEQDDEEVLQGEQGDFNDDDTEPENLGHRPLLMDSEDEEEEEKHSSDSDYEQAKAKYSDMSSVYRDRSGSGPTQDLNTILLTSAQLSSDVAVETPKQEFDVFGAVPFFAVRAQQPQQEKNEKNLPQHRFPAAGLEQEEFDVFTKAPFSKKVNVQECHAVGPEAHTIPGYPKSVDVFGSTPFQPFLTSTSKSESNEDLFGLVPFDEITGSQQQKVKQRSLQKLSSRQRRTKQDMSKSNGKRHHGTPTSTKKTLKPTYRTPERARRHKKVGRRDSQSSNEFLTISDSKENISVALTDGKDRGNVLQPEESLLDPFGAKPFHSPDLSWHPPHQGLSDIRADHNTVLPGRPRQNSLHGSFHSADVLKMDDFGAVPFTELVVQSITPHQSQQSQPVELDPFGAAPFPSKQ

**Q.** With Cc1c[nH]c2nccc(Oc3c(F)cc(Nc4cc(Cl)nc(N)n4)cc3F)c12 [BAY-549] as the compound, how does the residual activity [1] read?
**A.** 95%

**Q.** What about the residual activity [2] of the same compound?
**A.** 96%

**Q.** What about the residual activity [3] of the same compound?
**A.** 100%

**Q.** And the residual activity [4]?
**A.** 100%

**Q.** What about the inhibition [5] of the same compound?
**A.** 21.9%

**Q.** And the residual activity [6]?
**A.** 97%

**Q.** And the residual activity [7]?
**A.** 94%

**Q.** What about the residual activity [8] of the same compound?
**A.** 87%

**Q.** What about the residual activity [9] of the same compound?
**A.** 94%

**Q.** And the residual activity [10]?
**A.** 75%

**Q.** What about the residual activity [11] of the same compound?
**A.** 98%

**Q.** What about the residual activity [12] of the same compound?
**A.** 55%

**Q.** What about the residual activity [13] of the same compound?
**A.** 100%

**Q.** And the residual activity [14]?
**A.** 100%

**Q.** What about the residual activity [15] of the same compound?
**A.** 42%

**Q.** What about the residual activity [16] of the same compound?
**A.** 99%

**Q.** What about the residual activity [17] of the same compound?
**A.** 100%

**Q.** What about the residual activity [18] of the same compound?
**A.** 84%

**Q.** What about the residual activity [19] of the same compound?
**A.** 100%

**Q.** And the residual activity [20]?
**A.** 91%

**Q.** What about the residual activity [21] of the same compound?
**A.** 74%

**Q.** And the residual activity [22]?
**A.** 99%

**Q.** What about the residual activity [23] of the same compound?
**A.** 80%

**Q.** And the residual activity [24]?
**A.** 96%

**Q.** What about the residual activity [25] of the same compound?
**A.** 100%

**Q.** And the residual activity [26]?
**A.** 100%

**Q.** And the residual activity [27]?
**A.** 69%

**Q.** And the inhibition [28]?
**A.** 22.1%

**Q.** What about the residual activity [29] of the same compound?
**A.** 91%

**Q.** What about the residual activity [30] of the same compound?
**A.** 92%

**Q.** And the residual activity [31]?
**A.** 77%

**Q.** And the residual activity [32]?
**A.** 77%

**Q.** What about the residual activity [33] of the same compound?
**A.** 98%

**Q.** With Cn1cc(Cl)c2c(Oc3c(F)cc(Nc4cc(Cl)nc(N)n4)cc3F)ccnc21 [BAY-4900] as the compound, how does the residual activity [1] read?
**A.** 85%

**Q.** And the residual activity [2]?
**A.** 93%

**Q.** What about the residual activity [3] of the same compound?
**A.** 100%

**Q.** What about the residual activity [4] of the same compound?
**A.** 100%

**Q.** And the inhibition [5]?
**A.** 9.8%

**Q.** What about the residual activity [6] of the same compound?
**A.** 100%

**Q.** And the residual activity [7]?
**A.** 85%

**Q.** And the residual activity [8]?
**A.** 79%

**Q.** And the residual activity [9]?
**A.** 84%

**Q.** And the residual activity [10]?
**A.** 91%

**Q.** And the residual activity [11]?
**A.** 100%

**Q.** And the residual activity [12]?
**A.** 74%

**Q.** What about the residual activity [13] of the same compound?
**A.** 92%

**Q.** And the residual activity [14]?
**A.** 97%

**Q.** What about the residual activity [15] of the same compound?
**A.** 69%

**Q.** And the residual activity [16]?
**A.** 100%

**Q.** And the residual activity [17]?
**A.** 100%

**Q.** What about the residual activity [18] of the same compound?
**A.** 83%

**Q.** What about the residual activity [19] of the same compound?
**A.** 100%

**Q.** And the residual activity [20]?
**A.** 94%

**Q.** And the residual activity [21]?
**A.** 98%

**Q.** And the residual activity [22]?
**A.** 100%

**Q.** And the residual activity [23]?
**A.** 84%

**Q.** And the residual activity [24]?
**A.** 100%

**Q.** What about the residual activity [25] of the same compound?
**A.** 78%

**Q.** And the residual activity [26]?
**A.** 100%

**Q.** What about the residual activity [27] of the same compound?
**A.** 81%

**Q.** What about the inhibition [28] of the same compound?
**A.** 2.72%

**Q.** What about the residual activity [29] of the same compound?
**A.** 93%

**Q.** And the residual activity [30]?
**A.** 80%

**Q.** And the residual activity [31]?
**A.** 100%

**Q.** What about the residual activity [32] of the same compound?
**A.** 78%

**Q.** What about the residual activity [33] of the same compound?
**A.** 100%
